Test results taken from ChEMBL document CHEMBL4359836, “Synthesis and Biological Assessment of Pyrrolobenzoxazine Scaffold as a Potent Antioxidant” (J Med Chem, 2019).
Activity calls are given as the source filed them. No cut-off for these calls is given here.

What was measured:
Mitochondria [1] = experiment: Antioxidant activity in goat cardiac mitochondria assessed as inhibition of CuCl2/ascorbic acid-induced manganese superoxide dismutase at 16.5 uM after 1 hr by pyrogallol autoxidation method relative to control; type: functional, subcellular; settings: Capra hircus, Heart, Mitochrondria
[2] = Antioxidant activity in pH 7.4 phosphate buffer assessed as H2O2 scavenging activity by measuring H2O2 decomposition at 1.34 to 10.72 uM by spectrophotometric analysis; type: functional
[3] = Antioxidant activity in pH 7.4 phosphate buffer assessed as DPPH radical scavenging activity after 30 mins by spectrophotometric analysis; type: functional
[4] = Antioxidant activity in pH 7.4 phosphate buffer assessed as DPPH radical scavenging activity at 64 uM after 30 mins by spectrophotometric analysis (reference value: 0.811 +/- 0.02%); type: functional
[5] = Effect on GSH level in goat cardiac mitochondria at 8.25 to 66 uM after 1 hr by DTNB reagent based method; type: ADME, subcellular, Capra hircus, Heart, Mitochrondria
Mitochondria [6] = experiment: Antioxidant activity in goat cardiac mitochondria assessed as inhibition of CuCl2/ascorbic acid-induced lipid peroxidation at 16.5 uM after 1 hr by thiobarbituric acid based UV-Visible spectrophotometric method (reference value: 60.11%); type: functional, subcellular; settings: Capra hircus, Heart, Mitochrondria
Mitochondria [7] = experiment: Antioxidant activity in goat cardiac mitochondria assessed as inhibition of CuCl2/ascorbic acid-induced protein carbonyl content at 66 uM after 1 hr by DNPH assay relative to control; type: functional, subcellular; settings: Capra hircus, Heart, Mitochrondria
Mitochondria [8] = experiment: Antioxidant activity in goat cardiac mitochondria assessed as inhibition of CuCl2/ascorbic acid-induced manganese superoxide dismutase at 66 uM after 1 hr by pyrogallol autoxidation method relative to control; type: functional, subcellular; settings: Capra hircus, Heart, Mitochrondria
Mitochondria [9] = experiment: Antioxidant activity in goat cardiac mitochondria assessed as reversal of CuCl2/ascorbic acid-induced reduction in GSH level at 16.5 uM after 1 hr by DTNB reagent based method relative to control; type: functional, subcellular; settings: Capra hircus, Heart, Mitochrondria
Mitochondria [10] = experiment: Antioxidant activity in goat cardiac mitochondria assessed as reversal of CuCl2/ascorbic acid-induced reduction in PDH level at 66 uM using sodium pyruvate as substrate after 1 hr by spectrophotometric analysis relative to control; type: functional, subcellular; settings: Capra hircus, Heart, Mitochrondria
Mitochondria [11] = experiment: Antioxidant activity in goat cardiac mitochondria assessed as reversal of CuCl2/ascorbic acid-induced reduction in alpha-KGDH level at 8.25 uM using alpha-ketoglutarate as substrate after 1 hr (reference value: 69.78%); type: functional, subcellular; parameters: scale not given: the % may be the effect or the level left; settings: Capra hircus, Heart, Mitochrondria
Mitochondria [12] = experiment: Antioxidant activity in goat cardiac mitochondria assessed as reversal of CuCl2/ascorbic acid-induced reduction in alpha-KGDH level at 16.5 uM using alpha-ketoglutarate as substrate after 1 hr (reference value: 69.78%); type: functional, subcellular; parameters: scale not given: the % may be the effect or the level left; settings: Capra hircus, Heart, Mitochrondria
Mitochondria [13] = experiment: Antioxidant activity in goat cardiac mitochondria assessed as reversal of CuCl2/ascorbic acid-induced reduction in SDH level at 8.25 uM using succinate as substrate after 1 hr by spectrophotometric analysis (reference value: 71.51%); type: functional, subcellular; parameters: scale not given: the % may be the effect or the level left; settings: Capra hircus, Heart, Mitochrondria
Mitochondria [14] = experiment: Antioxidant activity in goat cardiac mitochondria assessed as reversal of CuCl2/ascorbic acid-induced reduction in SDH level at 16.5 uM using succinate as substrate after 1 hr by spectrophotometric analysis relative to control; type: functional, subcellular; settings: Capra hircus, Heart, Mitochrondria
Mitochondria [15] = experiment: Antioxidant activity in goat cardiac mitochondria assessed as reversal of CuCl2/ascorbic acid-induced reduction in SDH level at 33 uM using succinate as substrate after 1 hr by spectrophotometric analysis relative to control; type: functional, subcellular; settings: Capra hircus, Heart, Mitochrondria
[16] = Effect on PDH levels in goat cardiac mitochondria at 8.25 to 66 uM using sodium pyruvate as substrate after 1 hr by spectrophotometric analysis; type: ADME, subcellular, Capra hircus, Heart, Mitochrondria
[17] = Effect on SDH levels in goat cardiac mitochondria at 8.25 to 66 uM using succinate as substrate after 1 hr by spectrophotometric analysis; type: ADME, subcellular, Capra hircus, Heart, Mitochrondria
[18] = Inhibition of PDH in goat cardiac mitochondria assessed as effect on Vmax at 66 uM using sodium pyruvate as substrate after 1 hr by Lineweaver-Burk double reciprocal plot analysis; parameters: species or system Capra hircus, Heart
[19] = Inhibition of ICDH in goat cardiac mitochondria assessed as effect on Vmax at 66 uM using isocitrate as substrate after 1 hr by Lineweaver-Burk double reciprocal plot analysis; parameters: species or system Capra hircus, Heart
Capra hircus [20] = species: Capra hircus; experiment: Effect on PDH in goat cardiac mitochondria assessed as reversal of CuCl2/ascorbic acid induced reduction in Km at 66 uM using sodium pyruvate as substrate after 1 hr by Lineweaver-Burk double reciprocal plot analysis; settings: Heart
Capra hircus [21] = species: Capra hircus; experiment: Effect on ICDH in goat cardiac mitochondria assessed as reversal of CuCl2/ascorbic acid induced reduction in Vmax at 66 uM using isocitrate as substrate after 1 hr by Lineweaver-Burk double reciprocal plot analysis; settings: Heart
Capra hircus [22] = species: Capra hircus; experiment: Effect on succinate dehydrogenase in goat cardiac mitochondria assessed as reversal of CuCl2/ascorbic acid induced reduction in Km at 66 uM using succinate as substrate after 1 hr by Lineweaver-Burk double reciprocal plot analysis; settings: Heart
Mitochondria [23] = experiment: Protective activity against CuCl2/ascorbic acid-induced oxidative damage in goat cardiac mitochondria assessed as reversal of CuCl2/ascorbic acid-induced reduction in fluorescence intensity at 66 uM after 1 hr by Janus green-B staining based confocal microscopic method relative to control; type: functional, subcellular; settings: Capra hircus, Heart, Mitochrondria
[24] = Effect on manganese superoxide dismutase-like activity in cardiac mitochondria at 8.25 to 66 uM after 1 hr by pyrogallol autoxidation method relative to control; type: ADME, subcellular, Capra hircus, Heart, Mitochrondria; settings: goat
Mitochondria [25] = experiment: (§1) Protective activity against CuCl2/ascorbic acid-induced apoptotic alteration in goat cardiac mitochondria assessed as reversal of CuCl2/ascorbic acid-induced reduction in cytochrome c oxidoreductase activity at 8.25 uM incubated for 1 hr and measured at 10 secs time interval for 90 secs by spectrophotometric analysis (reference value: 47.82%); type: functional, subcellular; parameters: scale not given: the % may be the effect or the level left; settings: Capra hircus, Heart, Mitochrondria
Mitochondria [26] = experiment: as §1, with “16.5” for “8.25”; type: functional, subcellular; parameters: scale not given: the % may be the effect or the level left; settings: Capra hircus, Heart, Mitochrondria
Mitochondria [27] = experiment: as §1, with “33” for “8.25”, “uM” for “uM incubated for 1 hr and”; type: functional, subcellular; parameters: scale not given: the % may be the effect or the level left; settings: Capra hircus, Heart, Mitochrondria
Mitochondria [28] = experiment: (§2) Protective activity against CuCl2/ascorbic acid-induced apoptotic alteration in goat cardiac mitochondria assessed as reversal of CuCl2/ascorbic acid-induced reduction in cytochrome c oxidase activity incubated for 1 hr and measured at 10 secs time interval for 90 secs by spectrophotometric analysis; type: functional, subcellular; settings: Capra hircus; Heart; Mitochrondria
Mitochondria [29] = experiment: as §2, with “oxidase activity at 16.5 uM incubated for” for “oxidase activity incubated for”, “spectrophotometric analysis relative to control” for “spectrophotometric analysis”; type: functional, subcellular; settings: Capra hircus, Heart, Mitochrondria
Mitochondria [30] = experiment: as §2, with “oxidase activity at 33 uM incubated for” for “oxidase activity incubated for”, “spectrophotometric analysis relative to control” for “spectrophotometric analysis”; type: functional, subcellular; settings: Capra hircus, Heart, Mitochrondria
[31] = Effect on cytochrome c oxidase activity in goat cardiac mitochondria at 8.25 to 66 uM incubated for 1 hr and measured at 10 secs time interval for 90 secs by spectrophotometric analysis; type: ADME, subcellular, Capra hircus, Heart, Mitochrondria
[32] = Induction of structural distortion in goat cardiac mitochondria at 66 uM after 1 hr by scanning electron microscopy; type: subcellular, Capra hircus, Heart, Mitochrondria
[33] = Binding affinity to Cu2+ assessed as binding constant K1 at 66 uM in presence of CuCl2 by isothermal titration calorimetry
[34] = Binding affinity to Cu2+ assessed as binding constant K1 at 66 uM in presence of ascorbic acid/CuCl2 by isothermal titration calorimetry

- IC50 [3]: 46.4 µM
- inhibition (INH) [18]: Not Active
- inhibition (INH) [19]: Not Active
- Activity (Capra hircus [20]): Active
- Activity (Capra hircus [21]): Active
- Activity (Capra hircus [22]): Active
- Activity (Mitochondria [25]): 23.5%
- Activity (Mitochondria [26]): 35.2%
- Activity (Mitochondria [27]): 49.8%
- Activity (Mitochondria [28]): Dose-dependent effect
- fold change (FC) (Mitochondria [29]): 2.36
- fold change (FC) (Mitochondria [30]): 3.5
- K [33]: 8.37 ×10⁴ /M
- K [34]: 8.7 ×10⁴ /M
Structure (SMILES): CCOC(=O)c1c(-c2ccc(O)c(OC)c2)cn2c1c(=O)oc1ccccc12
- inhibition (Mitochondria [1]): 34.1%
- Activity [2]: inactive
- Activity [3]: Dose-dependent effect
- MEC [3]: 66 µM
- Activity [4]: 82.3%
- Activity [5]: Non-Toxic
- inhibition (Mitochondria [6]): 19.9%
- inhibition (Mitochondria [7]): 72.1%
- inhibition (Mitochondria [8]): 60.9%
- fold change (FC) (Mitochondria [9]): 3.06
- fold change (FC) (Mitochondria [10]): 3.82
- Activity (Mitochondria [11]): 43.1%
- Activity (Mitochondria [12]): 85.4%
- Activity (Mitochondria [13]): 51.7%
- fold change (FC) (Mitochondria [14]): 2.08
- fold change (FC) (Mitochondria [15]): 3.06
- Activity [16]: Non-Toxic
- Activity [17]: Non-Toxic
- fold change (FC) (Mitochondria [23]): 4.42
- Activity [24]: Non-Toxic
- Activity [31]: Non-Toxic
- Activity [32]: Non-Toxic
